According to patent US20100267819A1, “PHARMACEUTICAL COMPOSITION FOR DIABETIC NEPHROPATHY AND ITS PREPARATION AND APPLICATION” (Guangzhou Consun Medicine R&D Medicine, priority 2009, published 2010):

Columns and labels:
db|db mouse [1] = assay: Blood glucose of db|db mouse in diabetic nephropathy; type: in vivo; conditions: for Blood glucose value: db|db mouse; for blood glucose of db|db mouse: final phase of administration, vs model group, P<0.05
Experimental: (§1) During the experiment, all the mouse are bred in lamina flow cage, free to food and water. Water and underpad are changed every day to keep the cage clean, and the water, seedstuff, underpad are stationary. […] All the appliances and food are sterilized everyday. […] Moreover, 10 8-week-old B6 mouse are taken as the normal control. Each group is given 0.4 ml corresponding drug in different concertration or physiological saline by intragastric administration for 5 weeks. Determinate the food-intake and water-intake, weigh every week, determinate the blood glucose every week.

[2] = test system: Rat messangial cell cell line HBZY-1; assay: Extracellular matrix accrementition of rat mesangial cells cultured under high glucose (PAS staining); type: cell-based; conditions: high glucose 25 mmol/L, 48 h, extract 0.1 g/L, compounds 1, 0.1, 0.01 μmol/L, co-use 0.06:0.03, 0.05:0.05, 0.03:0.06 μmol/L
Experimental: (§2) Take the rat mesangial cells in log phase growth, prepare into unicell suspension (5×10^4 cells/ml) with 5% DMEM medium of newborn calf serum, inoculate to the 24 well plate coated with coverslip for 1 ml/well (cell quantity: 5×10^4/well), incubated under 5% CO2 incubator at 37° C. for 24 hours, added the DMEM medium without serum, incubated 24 hours to make all the cells to anestrum. Discard the supernatant, added 900 μl DMEM medium and 100 μl different concentration amylaceum (each concentration for 3 repeat) and incubated 24 h, 48 h, 72 h and 96 h, respectively. Observed the modeling results after staining with HE and PAS. […] Put the coverslips pre-treatment by poly-L-lysine into 24-well cell culture plates before added the unicell suspension, then cultured these cells until the step of synchronization. […] Each group repeats for 3 times. Then, all the groups are incubated under 5% CO2 incubator at 37° C. for 48 h. After that, take out of the coverslips for HE staining, PAS staining and immunocytochemistry staining Routine HE Staining, Routine PAS Staining, CTGF Staining

CTGF = CTGF express of rat mesangial cells cultured under high glucose (immunocytochemistry); type: cell-based; conditions: high glucose 25 mmol/L, 48 h, CTGF staining; extract 0.1 g/L, compounds 1, 0.1, 0.01 μmol/L, co-use 0.06:0.03, 0.05:0.05, 0.03:0.06 μmol/L
Experimental: as §2, with “Routine HE Staining, Routine PAS Staining, CTGF Staining” left out

[3] = test system: Rat messangial cell cell line HBZY-1; assay: Hypertrophy of rat mesangial cells cultured under high glucose (HE staining); type: cell-based; conditions: high glucose 25 mmol/L, 48 h, extract 0.1 g/L, compounds 1, 0.1, 0.01 μmol/L, co-use 0.06:0.03, 0.05:0.05, 0.03:0.06 μmol/L
Experimental: as §2

db|db mouse [4] = assay: Kidney weight and kidney index of db|db mouse in diabetic nephropathy; type: in vivo; conditions: after 5 weeks; for Kidned index: kidney weight/body weight×1000
Experimental: as §1

db|db mouse [5] = assay: Weight of db|db mouse of diabetic nephropathy; type: in vivo; conditions: for Weight: db|db mouse; for weight of db|db mouse: vs model group, P<0.05, intragastric
Experimental: as §1

db|db mouse [6] = assay: Urine volume, urine total protein and urine creatinine in 24 hours of db|db mouse in diabetic nephropathy; type: in vivo; conditions: for Total protein / Urine creatinine / Urine volume: 24 hour urine after 5 weeks; for urine creatinine in 24 hours / urine total protein in 24 hours / urine volume in 24 hours: vs model group
Experimental: as §1

[7] = 2 weeks, 0.5 mg/kg intragastric
[8] = 2 weeks, 1.0 mg/kg intragastric
[9] = 2 weeks, 2.0 mg/kg intragastric
[10] = 3 weeks, 0.5 mg/kg intragastric
[11] = 3 weeks, 1.0 mg/kg intragastric
[12] = 3 weeks, 2.0 mg/kg intragastric
[13] = 4 weeks, 0.5 mg/kg intragastric
[14] = 4 weeks, 1.0 mg/kg intragastric
[15] = 4 weeks, 2.0 mg/kg intragastric
[16] = 5 weeks, 0.5 mg/kg intragastric
[17] = 5 weeks, 1.0 mg/kg intragastric
[18] = 5 weeks, 2.0 mg/kg intragastric

COc1cc2ccc(=O)oc2cc1O [7-hydroxy-6-methoxycomarin, 7-hydroxy-6-methoxycoumarin]
Blood glucose value (db|db mouse [1]; 1 week, 0.5 mg/kg intragastric): 13.3 ± 4.5 mmol/L | Blood glucose value (db|db mouse [1]; 1 week, 1.0 mg/kg intragastric): 13.5 ± 4.0 mmol/L | Blood glucose value (db|db mouse [1]; 1 week, 2.0 mg/kg intragastric): 13.8 ± 4.7 mmol/L | Blood glucose value (db|db mouse [1]; [7]): 13.4 ± 2.7 mmol/L | Blood glucose value (db|db mouse [1]; [8]): 13.0 ± 3.2 mmol/L | Blood glucose value (db|db mouse [1]; [9]): 13.3 ± 2.7 mmol/L | Blood glucose value (db|db mouse [1]; [10]): 13.5 ± 3.2 mmol/L | Blood glucose value (db|db mouse [1]; [11]): 12.6 ± 4.8 mmol/L | Blood glucose value (db|db mouse [1]; [12]): 13.1 ± 4.7 mmol/L | Blood glucose value (db|db mouse [1]; [13]): 12.1 ± 3.6 mmol/L | Blood glucose value (db|db mouse [1]; [14]): 10.8 ± 2.5 mmol/L | Blood glucose value (db|db mouse [1]; [15]): 10.4 ± 3.9 mmol/L | Blood glucose value (db|db mouse [1]; [16]): 13.0 ± 2.2 mmol/L | Blood glucose value (db|db mouse [1]; [17]): 10.4 ± 2.5 mmol/L | Blood glucose value (db|db mouse [1]; [18]): 11.3 ± 4.4 mmol/L | blood glucose of db|db mouse (db|db mouse [1]): remarkably decrease the blood glucose | extracellular matrix of rat mesangial cells induced by high glucose [2]: decrease the extracellular matrix | CTGF express of rat mesangial cells induced by high glucose (CTGF): decrease the CTGF express | hypertrophy of rat mesangial cells induced by high glucose [3]: restrain significantly the hypertrophy | kidney index (db|db mouse [4]): obviously decrease | kidney weight (db|db mouse [4]): obviously decrease | Kidned weight (db|db mouse [4]; 0.5 mg/kg intragastric): 0.29 ± 0.02 g | Kidned index (db|db mouse [4]; 0.5 mg/kg intragastric): 12.6 ± 1.0 ‰ | Kidned weight (db|db mouse [4]; 1.0 mg/kg intragastric): 0.25 ± 0.03 g | Kidned weight (db|db mouse [4]; 2.0 mg/kg intragastric): 0.24 ± 0.04 g | Kidned index (db|db mouse [4]; 2.0 mg/kg intragastric): 9.1 ± 1.7 ‰ | Weight (db|db mouse [5]; 0 week, 0.5 mg/kg intragastric): 23.2 ± 0.6 g | Weight (db|db mouse [5]; 0 week, 1.0 mg/kg intragastric): 24.1 ± 0.5 g | Weight (db|db mouse [5]; 0 week, 2.0 mg/kg intragastric): 23.9 ± 0.5 g | Weight (db|db mouse [5]; 1 week, 0.5 mg/kg intragastric): 30.6 ± 1.2 g | Weight (db|db mouse [5]; 1 week, 1.0 mg/kg intragastric): 31.8 ± 1.0 g | Weight (db|db mouse [5]; 1 week, 2.0 mg/kg intragastric): 32.0 ± 1.3 g | Weight (db|db mouse [5]; [7]): 36.4 ± 1.5 g | Weight (db|db mouse [5]; [8]): 33.7 ± 1.4 g | Weight (db|db mouse [5]; [9]): 34.3 ± 1.9 g | Weight (db|db mouse [5]; [10]): 40.1 ± 2.5 g | Weight (db|db mouse [5]; [11]): 38.8 ± 1.4 g | Weight (db|db mouse [5]; [12]): 39.5 ± 1.8 g | Weight (db|db mouse [5]; [13]): 43.0 ± 2.1 g | Weight (db|db mouse [5]; [14]): 42.5 ± 2.5 g | Weight (db|db mouse [5]; [15]): 44.0 ± 3.2 g | Weight (db|db mouse [5]; [16]): 47.0 ± 3.9 g | Weight (db|db mouse [5]; [17]): 45.8 ± 3.0 g | Weight (db|db mouse [5]; [18]): 45.7 ± 4.5 g | weight of db|db mouse (db|db mouse [5]; 5 weeks): restrain the weight | Total protein (db|db mouse [6]; 0.5 mg/kg intragastric): 1.398 ± 0.372 mg | Urine creatinine (db|db mouse [6]; 0.5 mg/kg intragastric): 1.85 ± 0.56 mmol/L | Urine volume (db|db mouse [6]; 0.5 mg/kg intragastric): 0.95 ± 0.34 mL | Total protein (db|db mouse [6]; 1.0 mg/kg intragastric): 1.102 ± 0.249 mg | Urine creatinine (db|db mouse [6]; 1.0 mg/kg intragastric): 3.20 ± 0.85 mmol/L | Urine volume (db|db mouse [6]; 1.0 mg/kg intragastric): 0.75 ± 0.25 mL | Total protein (db|db mouse [6]; 2.0 mg/kg intragastric): 0.878 ± 0.352 mg | Urine creatinine (db|db mouse [6]; 2.0 mg/kg intragastric): 2.81 ± 0.76 mmol/L | Urine volume (db|db mouse [6]; 2.0 mg/kg intragastric): 0.78 ± 0.31 mL | urine creatinine in 24 hours (db|db mouse [6]): elevate the urine creatinine | urine total protein in 24 hours (db|db mouse [6]): decrease | urine volume in 24 hours (db|db mouse [6]): decrease the urine volume

O=c1ccc2ccc(O)cc2o1 [7-hydroxycoumarin]
Blood glucose value (db|db mouse [1]; 1 week, 0.5 mg/kg intragastric): 13.7 ± 4.1 mmol/L | Blood glucose value (db|db mouse [1]; 1 week, 1.0 mg/kg intragastric): 13.4 ± 4.6 mmol/L | Blood glucose value (db|db mouse [1]; 1 week, 2.0 mg/kg intragastric): 13.0 ± 3.6 mmol/L | Blood glucose value (db|db mouse [1]; [7]): 13.6 ± 2.9 mmol/L | Blood glucose value (db|db mouse [1]; [8]): 13.4 ± 2.6 mmol/L | Blood glucose value (db|db mouse [1]; [9]): 13.1 ± 5.1 mmol/L | Blood glucose value (db|db mouse [1]; [10]): 12.9 ± 2.9 mmol/L | Blood glucose value (db|db mouse [1]; [11]): 13.9 ± 4.3 mmol/L | Blood glucose value (db|db mouse [1]; [12]): 13.7 ± 5.1 mmol/L | Blood glucose value (db|db mouse [1]; [13]): 11.2 ± 4.0 mmol/L | Blood glucose value (db|db mouse [1]; [14]): 11.2 ± 4.4 mmol/L | Blood glucose value (db|db mouse [1]; [15]): 10.1 ± 2.4 mmol/L | Blood glucose value (db|db mouse [1]; [16]): 12.1 ± 1.9 mmol/L | Blood glucose value (db|db mouse [1]; [17]): 10.3 ± 2.0 mmol/L | Blood glucose value (db|db mouse [1]; [18]): 10.6 ± 3.0 mmol/L | blood glucose of db|db mouse (db|db mouse [1]): remarkably decrease the blood glucose | extracellular matrix of rat mesangial cells induced by high glucose [2]: decrease the extracellular matrix | CTGF express of rat mesangial cells induced by high glucose (CTGF): decrease the CTGF express | hypertrophy of rat mesangial cells induced by high glucose [3]: restrain significantly the hypertrophy | kidney index (db|db mouse [4]): obviously decrease | kidney weight (db|db mouse [4]): obviously decrease | Kidned weight (db|db mouse [4]; 0.5 mg/kg intragastric): 0.28 ± 0.04 g | Kidned index (db|db mouse [4]; 0.5 mg/kg intragastric): 11.8 ± 1.5 ‰ | Kidned weight (db|db mouse [4]; 1.0 mg/kg intragastric): 0.26 ± 0.03 g | Kidned weight (db|db mouse [4]; 2.0 mg/kg intragastric): 0.27 ± 0.02 g | Kidned index (db|db mouse [4]; 2.0 mg/kg intragastric): 9.4 ± 0.3 ‰ | Weight (db|db mouse [5]; 0 week, 0.5 mg/kg intragastric): 24.5 ± 0.5 g | Weight (db|db mouse [5]; 0 week, 1.0 mg/kg intragastric): 23.4 ± 0.5 g | Weight (db|db mouse [5]; 0 week, 2.0 mg/kg intragastric): 23.7 ± 0.6 g | Weight (db|db mouse [5]; 1 week, 0.5 mg/kg intragastric): 31.5 ± 1.5 g | Weight (db|db mouse [5]; 1 week, 1.0 mg/kg intragastric): 30.2 ± 1.4 g | Weight (db|db mouse [5]; 1 week, 2.0 mg/kg intragastric): 30.3 ± 0.5 g | Weight (db|db mouse [5]; [7]): 35.8 ± 1.8 g | Weight (db|db mouse [5]; [8]): 34.6 ± 1.4 g | Weight (db|db mouse [5]; [9]): 35.5 ± 1.7 g | Weight (db|db mouse [5]; [10]): 39.4 ± 2.0 g | Weight (db|db mouse [5]; [11]): 40.0 ± 2.7 g | Weight (db|db mouse [5]; [12]): 38.6 ± 1.9 g | Weight (db|db mouse [5]; [13]): 43.9 ± 3.1 g | Weight (db|db mouse [5]; [14]): 43.1 ± 2.8 g | Weight (db|db mouse [5]; [15]): 42.3 ± 2.8 g | Weight (db|db mouse [5]; [16]): 46.4 ± 4.6 g | Weight (db|db mouse [5]; [17]): 45.2 ± 4.1 g | Weight (db|db mouse [5]; [18]): 46.1 ± 5.3 g | weight of db|db mouse (db|db mouse [5]; 5 weeks): restrain the weight | Total protein (db|db mouse [6]; 0.5 mg/kg intragastric): 1.205 ± 0.541 mg | Urine creatinine (db|db mouse [6]; 0.5 mg/kg intragastric): 2.06 ± 0.65 mmol/L | Urine volume (db|db mouse [6]; 0.5 mg/kg intragastric): 1.03 ± 0.28 mL | Total protein (db|db mouse [6]; 1.0 mg/kg intragastric): 0.996 ± 0.338 mg | Urine creatinine (db|db mouse [6]; 1.0 mg/kg intragastric): 2.30 ± 0.71 mmol/L | Urine volume (db|db mouse [6]; 1.0 mg/kg intragastric): 0.72 ± 0.30 mL | Total protein (db|db mouse [6]; 2.0 mg/kg intragastric): 1.147 ± 0.305 mg | Urine creatinine (db|db mouse [6]; 2.0 mg/kg intragastric): 2.79 ± 0.54 mmol/L | Urine volume (db|db mouse [6]; 2.0 mg/kg intragastric): 0.74 ± 0.33 mL | urine creatinine in 24 hours (db|db mouse [6]): elevate the urine creatinine | urine total protein in 24 hours (db|db mouse [6]): decrease | urine volume in 24 hours (db|db mouse [6]): decrease the urine volume
